Assay results taken from US8372869B2, “Process for the treatment of bacterial infections using 2-phenyl-1,2-benzisoselenazol-3(2H)-one 1-oxide” (priority 2008, dated 2013).
“Also recorded” adds a separate entry of the source.

What was measured:
[1] = system: S. aureus strain NARSA VRS1 (resistant to both methicillin and vancomycin); experiment: Broth microdilution susceptibility testing, methicillin- and vancomycin-resistant S. aureus; format: cell-based, Staphylococcus aureus; conditions: strain NARSA VRS1, Mueller Hinton Broth, 24 (±4) hr, 35-37° C., 3.125-25 μM tested
From the text: (§1) A Gram-negative Escherichia coli strain, DH5(alpha), was purchased from Invitrogen (Cat #18265-017; Carlsbad, Calif.) and a Gram-positive Staphylococcus aureus strain, positive for catalase and coagulase, was purchased from Ward's Natural Science (Cat #85V1178; Rochester, N.Y.). S. aureus strain ATCC 33592 is a clinical isolate which is resistant to methicillin and which was obtained from the American Type Culture Collection (Manassas, Va.). S. aureus strain NARSA VRS 1 is a clinical isolate which is resistant to both methicillin and vancomycin and which was obtained from Focus Technologies, Inc. (Herndon, Va.). These bacterial strains were used to test the antibacterial activity of ebselen se-oxide. To prepare ebselen se-oxide, an adequate amount of said compound was dissolved in 0.5 mL of dimethylsulfoxide (DMSO) to give a 30.0 mM stock solution.
(§2) Note that all susceptibility assays were performed in triplicate wells using sterile flat-bottom 96-well microtiter plates. […] After 24 (±4) hr of incubation at 35-37° C., the MIC (minimum inhibitory concentration) for ebselen se-oxide was determined for each strain visually by comparing the turbidity of the triplicate treatments to that observed for drug-free growth control wells. […]

[2] = system: Escherichia coli strain DH5(alpha) (Gram-negative); experiment: Bacterial growth inhibition by light-scattering at 550 nm, Escherichia coli; format: cell-based; conditions: read-out: IC50 towards Escherichia coli cells (growth inhibition)
From the text: as §1
(§3) Luria Broth (LB) was used to for the culturing of both bacterial strains. […]
(§4) Bacterial growth, in the absence or presence of ebselen se-oxide, was assessed by light-scattering at 550 nm. In separate experiments, bacterial cells of either the Staphylococcus aureus or the Escherichia coli strain were inoculated into polypropylene tubes containing 5 mL of LB medium to obtain an initial optical density at 550 nm (OD550) of ˜0.005, as determined using a spectrophotometer (UV 160U, Shimadzu Corp., Kyoto, Japan). […]

[3] = system: Staphylococcus aureus strain, positive for catalase and coagulase (Gram-positive); experiment: Bacterial growth inhibition by light-scattering at 550 nm, Staphylococcus aureus; format: cell-based; conditions: read-out: IC50, concentration required to inhibit the growth of Staphylococcus aureus to 50% of the untreated control
From the text: as §1, §3, §4

[4] = system: S. aureus strain ATCC 33592 (resistant to methicillin); experiment: Broth microdilution susceptibility testing, methicillin-resistant S. aureus; format: cell-based, Staphylococcus aureus; conditions: strain ATCC 33592, Mueller Hinton Broth, 24 (±4) hr, 35-37° C., 3.125-25 μM tested
From the text: as §1, §2

A-431 human skin cells = experiment: MTT viability assay in human skin cells; format: cell-based; conditions: 12.5, 25 or 50 μM, 24 hr, 37° C., serum-free DMEM
Experimental: Cells were then incubated for 24 hr at 37° C. After incubation, the MTT viability assay was performed. This assay measures the conversion of 3-[4,5-dimethylthiazol-2-yl]-2,5-diphenyl tetrazolium bromide (MTT) into a colored product in living cells. The optical density of this purple formazan product in the cell culture medium was then measured spectrophotometrically at 570 nm and cell viability was determined as described by Mosmann (15).
The MTT assay was used to determine cell viability and the LC50 value for ebselen se-oxide in these cells was evaluated.

Row | Structure (SMILES) | MIC (lowest concentration showing 100% growth inhibition in all three wells) [1] | IC50 [2] | IC50 [3] | MIC (lowest concentration showing 100% growth inhibition in all three wells) [4] | Cytotoxic effect on viability of A-431 human skin cells (MTT) (A-431 human skin cells)
1 | O=C1c2ccccc2[Se](=O)N1c1ccccc1 (stereo not drawn) [ebselen se-oxide, 2-phenyl-1,2-benzisoselenazol-3(2H)-one 1-oxide] | low micromolar range | ~17 µM | ~0.6 µM | low micromolar range | neither compound was toxic; also recorded: no toxicity
2 | O=c1c2ccccc2[se]n1-c1ccccc1 [ebselen, 2-phenyl-1,2-benzoisoselenazol-3(2H)-one, reference compound] | – | – | – | – | neither compound was toxic
